Results taken from patent publication US20230104487A1, “11-(4-CHLOROPHENYL)-4-(2,3-DIHYDRO-1H-INDOLE-1-CARBONYL)-3,11-DIMETHYL-5,10,DIOXATRICYCLO[7.4.0.0,2,6,]TRIDECA-1,3,6,8-TETRAEN-13-ONE AND DERIVATIVES AS DESTABILIZER OF CRY1 FOR THE TREATMENT OF CIRCADIAN RHYTHM ASSOCIATED DISEASES AND DISORDERS” (KOC UNIVERSITESI, priority 2019, published 2023).
Entries after “also recorded” stand apart in the source; their conditions may differ.

Key:
C57BL/6J mice = assay: Circadian behavioral analysis (locomotor activity); format: in vivo, mouse; conditions: constant dark conditions
Procedure: C57BL/6J mice were synchronized 10 days under 12 h:12 h light-dark cycles. After 10 days mice were treated with intraperitoneal dose of 60 mg/kg FORMULA I or vehicle for 14 days and kept under constant darkness (n=12). Locomotor activity of mice were recorded for additional 10-days without any injection. During these days locomotor activity of mice were recorded by ClockLab (Actimetrics) software program. FIG. 7A Representative locomotor activity of mice injected with vehicle (n=5) or FIG. 7B FORMULA I (n=7). FIG. 7C Period and FIG. 7D amplitude of mice under different conditions and injected with vehicle or FORMULA I. Period and amplitude values were calculated by using ClockLab Analysis (Actimetrics) program. Statistical significance was evaluated using one-way analysis of variance (ANOVA), followed by a Tukey's multiple comparisons test using Prism software (GraphPad Software)
Mice were housed in individual cages within a temperature- and humidity-controlled, light-tight enclosure. Each cage contained a running wheel. Food and water were allowed ad libitum. Animals were entrained to a 12:12 h L:D cycle for ≥2 weeks before being released into constant darkness. Then, vehicle (n=5) and FORMULA I (n=6) administered to animals for 5 days and then animals were kept under constant conditions for more than 2 weeks. […]

CRY2 = assay: Protein immunoblot, synchronized U2-OS cells, CRY2; format: cell-based, human; conditions: 10 μM, 80-92 h
Procedure: FIGS. 3A-3G are an illustration of FORMULA I decreased CRY1 level in synchronized U2-OS cells. Confluent U2-OS cells were synchronized by 2 h treatment with dexamethasone ([…]) and medium replaced with fresh medium containing FORMULA I or solvent (DMSO final 0.5%). Cells were harvested at indicated time points. FIGS. 3A-3B show lysed cells were analyzed via protein immunoblot technique. […] CRY levels in DMSO control divided by that of in FORMULA I treated samples were reported (mean±SEM, n=4). FIGS. 3C-3G show cells were subjected to reverse-transcription-quantitative polymerase chain reaction (RT-qPCR). […] Expression level of genes was normalized according to the expression level of that gene at 72ndh. (Data represent the mean±SEM, n=3 with duplicates ***: p<0.001 **: p<0.005, *: p<0.05 versus DMSO control by two-way ANOVA).
Cells were lysed in RIPA buffer (50 mM Tris, 150 mM NaCl, 1% Triton-X, 0.1% SDS) with fresh Protease inhibitor cocktail (PIC). After centrifugation at 13000 rpm for 15 minutes at 4° C., supernatant was used to determine the protein amount using Pierce Protein Assay (Thermo Scientific) according to the manufacturer's instruction. Mice liver samples were homogenized and lysed with Dounce homogenizer and RIPA buffer. […] ECL buffer system (Advansta WesternBright) was used to visualize HRP chemi-luminescence via BioRad ChemiDoc Touch visualizer. […]

Cc1c(C(=O)N2CCc3ccccc32)oc2ccc3c(c12)C(=O)CC(C)(c1ccc(Cl)cc1)O3 (stereo not drawn) [FORMULA I, 11-(4-chlorophenyl)-4-(2,3-dihydro-1H-indole-1-carbonyl)-3,11-dimethyl-5,10,dioxatricyclo[7.4.0.0,2,6,]trideca-1,3,6,8-tetraen-13-one]
amplitude of locomotor activity (C57BL/6J mice): statistically significant impact on the amplitude
shortening of locomotor period length versus vehicle (C57BL/6J mice): approximately 14 min
CRY2 protein level (CRY2): increased CRY2 levels; also recorded: increased the level of CRY2
